Patent US10202391B2, “Chemical compounds” (AstraZeneca AB, priority 2015, dated 2019)

Experiments:
ERK2 = biological target: T1, ERK2 (Homo sapiens, UniProt P28482); test: ERK2 Rapidfire Mass Spectrometry Inhibition of Catalysis Assay; type: biochemical; conditions: 1.2 nM ERK2, 16 μM Erktide, 120 μM ATP (measured Km), 15 minute pre-incubation; read-out: ERK2 Mass Spectrometry Enzyme IC50
T1 construct: made in house
How it was run: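 In-house MEK-activated ERK2 (1.2 nM) in 50 mM Tris pH 7.5, 10 mM MgCl2, 0.1 mM EGTA, 10 mM DTT, 0.01% CHAPS; 12-point dose range 10–0.0000125 μM, 1% DMSO. Reaction 20 min at room temperature, formic acid quench; Erktide and phospho-Erktide measured by RapidFire mass spectrometry to give IC50.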

[1] = test system: phospho-p90RSK in A375 cell line; test: A375 Phospho-p90RSK Cellular Assay; type: cell-based, human; conditions: Homo sapiens, A-375, 2 h, A375 cells, 2 hours incubation
How it was run: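 A375 cells (2400/well, DMEM/10% FCS) seeded overnight, then dosed over a 12-point range from 30 μM down to 0.00003 μM (0.3% DMSO) for 2 h at 37 °C. Fixed cells were immunostained for phospho-p90RSK Thr359 with Hoechst nuclear counterstain and read by high-content imaging; IC50s fitted from dose-response.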

T1 sequence (P28482 whole entry): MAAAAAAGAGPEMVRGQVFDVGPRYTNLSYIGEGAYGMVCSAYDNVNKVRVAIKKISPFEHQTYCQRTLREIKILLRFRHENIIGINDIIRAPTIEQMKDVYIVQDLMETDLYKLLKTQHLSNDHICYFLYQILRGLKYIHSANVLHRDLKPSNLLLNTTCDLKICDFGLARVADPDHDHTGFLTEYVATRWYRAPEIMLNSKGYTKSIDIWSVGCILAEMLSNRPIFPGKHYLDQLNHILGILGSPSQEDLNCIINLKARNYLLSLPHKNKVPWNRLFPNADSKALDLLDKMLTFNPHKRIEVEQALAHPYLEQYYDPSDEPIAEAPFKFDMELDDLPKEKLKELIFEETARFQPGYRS

IC50 (ERK2): 0.6 nM | IC50 [1]: 5.7 nM
SMILES: COC[C@H]1Cn2cc(-c3nc(Nc4ccnn4C)ncc3C)nc2C(=O)N1Cc1ccc(F)c(F)c1 [Example 18, (R)-7-(3,4-Difluorobenzyl)-6-(methoxymethyl)-2-(5-methyl-2-((1-methyl-1H-pyrazol-5-yl)amino)pyrimidin-4-yl)-6,7-dihydroimidazo[1,2-a]pyrazin-8(5H)-one]
